{"source": "ChEMBL document CHEMBL1201862", "about": "“PubChem BioAssay data set” (2004)", "experiment_in_all_cases": "growth of human tumour cells (NCI), 48 h", "key": {"[1]": {"system": "RXF 631"}, "[2]": {"system": "DMS-273"}, "[3]": {"system": "M19-MEL"}, "[4]": {"system": "DLD-1"}, "[5]": {"system": "HOP-18"}, "[6]": {"system": "DMS-114"}, "[7]": {"system": "KM-20L2"}, "[8]": {"system": "XF498"}, "[9]": {"system": "SNB-78"}}, "note": "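1) Cells in 96-well plates. 2) Compound, 48 h, 5 concentrations. 3) Linear interpolation between surrounding doses. 4) Unreached endpoint = highest concentration. GI50 is the concentration that inhibits growth by half.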 Activity calls are given as the source filed them. Cut-off read from the data, not from the text of the source: active = GI50 up to about 1.1 µM and inactive = higher.", "data": [{"smiles": "CC(=O)N(C)C=C1C(=O)N(C)C(=O)N(C)C1=O", "values": [{"measurement": "GI50", "setting": "[1]", "result": "> 100 µM (inactive)"}, {"measurement": "GI50", "setting": "[2]", "result": "> 100 µM (inactive)"}, {"measurement": "GI50", "setting": "[3]", "result": "> 100 µM (inactive)"}, {"measurement": "GI50", "setting": "[4]", "result": "> 100 µM (inactive)"}, {"measurement": "GI50", "setting": "[5]", "result": "> 100 µM (inactive)"}, {"measurement": "GI50", "setting": "[6]", "result": "> 100 µM (inactive)"}, {"measurement": "GI50", "setting": "[7]", "result": "> 100 µM (inactive)"}, {"measurement": "GI50", "setting": "[8]", "result": "> 100 µM (inactive)"}]}, {"smiles": "COc1ccc2c(c1O)C(=O)C(CCC(=O)O)CC2", "note": "(stereo not given)", "values": [{"measurement": "GI50", "setting": "[1]", "result": "> 100 µM (inactive)"}, {"measurement": "GI50", "setting": "[2]", "result": "> 100 µM (inactive)"}, {"measurement": "GI50", "setting": "[3]", "result": "> 100 µM (inactive)"}, {"measurement": "GI50", "setting": "[4]", "result": "> 100 µM (inactive)"}, {"measurement": "GI50", "setting": "[5]", "result": "> 100 µM (inactive)"}, {"measurement": "GI50", "setting": "[6]", "result": "> 100 µM (inactive)"}, {"measurement": "GI50", "setting": "[9]", "result": "> 100 µM (inactive)"}, {"measurement": "GI50", "setting": "[7]", "result": "> 100 µM (inactive)"}, {"measurement": "GI50", "setting": "[8]", "result": "> 100 µM (inactive)"}]}, {"smiles": "C[C@]12C/C(=C/O)C(=O)C(O)=C1CC[C@@H]1C2CC[C@@]2(C)C1CC[C@@H]2O", "note": "(stereo not given in full)", "values": [{"measurement": "GI50", "setting": "[1]", "result": "20.6 µM (inactive)"}, {"measurement": "GI50", "setting": "[2]", "result": "23.5 µM (inactive)"}, {"measurement": "GI50", "setting": "[3]", "result": "21.2 µM (inactive)"}, {"measurement": "GI50", "setting": "[5]", "result": "33.7 µM (inactive)"}, {"measurement": "GI50", "setting": "[6]", "result": "18.2 µM (inactive)"}, {"measurement": "GI50", "setting": "[9]", "result": "19.7 µM (inactive)"}, {"measurement": "GI50", "setting": "[7]", "result": "22.6 µM (inactive)"}, {"measurement": "GI50", "setting": "[8]", "result": "17.6 µM (inactive)"}]}, {"smiles": "Cc1cc(N(CCC#N)CCC#N)ccc1/C=C/C(=O)Nc1ccccc1Cl", "values": [{"measurement": "GI50", "setting": "[2]", "result": "> 100 µM (inactive)"}, {"measurement": "GI50", "setting": "[3]", "result": "> 100 µM (inactive)"}, {"measurement": "GI50", "setting": "[4]", "result": "> 100 µM (inactive)"}, {"measurement": "GI50", "setting": "[6]", "result": "> 100 µM (inactive)"}, {"measurement": "GI50", "setting": "[7]", "result": "> 100 µM (inactive)"}, {"measurement": "GI50", "setting": "[8]", "result": "> 100 µM (inactive)"}]}, {"smiles": "O=C1c2ccccc2C(=O)c2c1ccc1c2N=C(c2ccc(Br)cc2)CC(c2cccc3ccccc23)N1", "note": "(stereo not given)", "values": [{"measurement": "GI50", "setting": "[1]", "result": "> 100 µM (inactive)"}, {"measurement": "GI50", "setting": "[2]", "result": "> 100 µM (inactive)"}, {"measurement": "GI50", "setting": "[4]", "result": "> 100 µM (inactive)"}, {"measurement": "GI50", "setting": "[5]", "result": "> 100 µM (inactive)"}, {"measurement": "GI50", "setting": "[6]", "result": "> 100 µM (inactive)"}, {"measurement": "GI50", "setting": "[9]", "result": "> 100 µM (inactive)"}, {"measurement": "GI50", "setting": "[7]", "result": "> 100 µM (inactive)"}, {"measurement": "GI50", "setting": "[8]", "result": "> 100 µM (inactive)"}]}, {"smiles": "COc1cc(CC2c3cc(OC)c(OC)cc3CCN2C)c(Oc2cc3c(cc2OC)-c2c(OC)c(OC)c(OC)c4c2C(C3)N(C)CC4)cc1OC", "note": "(stereo not given)", "values": [{"measurement": "GI50", "setting": "[2]", "result": "12.5 µM (inactive)"}, {"measurement": "GI50", "setting": "[3]", "result": "15 µM (inactive)"}, {"measurement": "GI50", "setting": "[4]", "result": "15.5 µM (inactive)"}, {"measurement": "GI50", "setting": "[5]", "result": "16.4 µM (inactive)"}, {"measurement": "GI50", "setting": "[6]", "result": "12.1 µM (inactive)"}, {"measurement": "GI50", "setting": "[9]", "result": "17.4 µM (inactive)"}, {"measurement": "GI50", "setting": "[7]", "result": "5.93 µM (inactive)"}, {"measurement": "GI50", "setting": "[8]", "result": "13 µM (inactive)"}]}, {"smiles": "Cc1cccc(=O)c([O-])c1.Cc1cccc(=O)c([O-])c1.[Bi+3].[Cl-]", "values": [{"measurement": "GI50", "setting": "[2]", "result": "7.29 µM (inactive)"}, {"measurement": "GI50", "setting": "[3]", "result": "11 µM (inactive)"}, {"measurement": "GI50", "setting": "[4]", "result": "9.95 µM (inactive)"}, {"measurement": "GI50", "setting": "[6]", "result": "3.3 µM (inactive)"}, {"measurement": "GI50", "setting": "[9]", "result": "24 µM (inactive)"}, {"measurement": "GI50", "setting": "[7]", "result": "2.99 µM (inactive)"}]}, {"smiles": "NC(=O)CCCC(NCc1c2ccccc2nc2ccccc12)C(=O)O", "note": "(stereo not given)", "values": [{"measurement": "GI50", "setting": "[2]", "result": "28.2 µM (inactive)"}, {"measurement": "GI50", "setting": "[3]", "result": "45.2 µM (inactive)"}, {"measurement": "GI50", "setting": "[4]", "result": "35.4 µM (inactive)"}, {"measurement": "GI50", "setting": "[6]", "result": "37.2 µM (inactive)"}, {"measurement": "GI50", "setting": "[7]", "result": "43.5 µM (inactive)"}, {"measurement": "GI50", "setting": "[8]", "result": "21 µM (inactive)"}]}, {"smiles": "CN(C)CCCNc1ccc2ncn3c4ccc(O)cc4c(=O)c1c23", "values": [{"measurement": "GI50", "setting": "[1]", "result": "0.318 µM (active)"}, {"measurement": "GI50", "setting": "[2]", "result": "0.246 µM (active)"}, {"measurement": "GI50", "setting": "[3]", "result": "1.53 µM (inactive)"}, {"measurement": "GI50", "setting": "[4]", "result": "1.4 µM (inactive)"}, {"measurement": "GI50", "setting": "[5]", "result": "3.86 µM (inactive)"}, {"measurement": "GI50", "setting": "[6]", "result": "0.334 µM (active)"}, {"measurement": "GI50", "setting": "[9]", "result": "9.73 µM (inactive)"}, {"measurement": "GI50", "setting": "[7]", "result": "1.59 µM (inactive)"}, {"measurement": "GI50", "setting": "[8]", "result": "3.83 µM (inactive)"}]}, {"smiles": "NC(=O)c1ncn2c1NCC1OC2C(O)C1O", "note": "(stereo not given)", "values": [{"measurement": "GI50", "setting": "[1]", "result": "> 100 µM (inactive)"}, {"measurement": "GI50", "setting": "[2]", "result": "> 100 µM (inactive)"}, {"measurement": "GI50", "setting": "[3]", "result": "> 100 µM (inactive)"}, {"measurement": "GI50", "setting": "[4]", "result": "> 100 µM (inactive)"}, {"measurement": "GI50", "setting": "[5]", "result": "> 100 µM (inactive)"}, {"measurement": "GI50", "setting": "[6]", "result": "> 100 µM (inactive)"}, {"measurement": "GI50", "setting": "[9]", "result": "> 100 µM (inactive)"}, {"measurement": "GI50", "setting": "[7]", "result": "> 100 µM (inactive)"}, {"measurement": "GI50", "setting": "[8]", "result": "> 100 µM (inactive)"}]}, {"smiles": "COC(=O)C1=C(O)c2cc(OC)c(OC)c(OC)c2[C@H](c2cc(OC)c(OC)c(OC)c2)C1C(=O)OC", "note": "(stereo not given in full)", "values": [{"measurement": "GI50", "setting": "[1]", "result": "41.7 µM (inactive)"}, {"measurement": "GI50", "setting": "[2]", "result": "15.8 µM (inactive)"}, {"measurement": "GI50", "setting": "[4]", "result": "45.1 µM (inactive)"}, {"measurement": "GI50", "setting": "[6]", "result": "30.6 µM (inactive)"}, {"measurement": "GI50", "setting": "[9]", "result": "32.1 µM (inactive)"}, {"measurement": "GI50", "setting": "[7]", "result": "18.2 µM (inactive)"}, {"measurement": "GI50", "setting": "[8]", "result": "51.8 µM (inactive)"}]}, {"smiles": "C[C@@H](N[C@H]1CCC[C@@H]1O)c1ccccc1.C[C@@H](N[C@H]1CCC[C@H]1O)c1ccccc1", "values": [{"measurement": "GI50", "setting": "[2]", "result": "> 100 µM (inactive)"}, {"measurement": "GI50", "setting": "[3]", "result": "> 100 µM (inactive)"}, {"measurement": "GI50", "setting": "[5]", "result": "48.8 µM (inactive)"}, {"measurement": "GI50", "setting": "[6]", "result": "> 100 µM (inactive)"}, {"measurement": "GI50", "setting": "[9]", "result": "> 100 µM (inactive)"}, {"measurement": "GI50", "setting": "[7]", "result": "38.2 µM (inactive)"}, {"measurement": "GI50", "setting": "[8]", "result": "> 100 µM (inactive)"}]}, {"smiles": "CC(C)CCCC(C)[C@H]1CCC2[C@@H]3CCC4Nc5nocc5C[C@]4(C)C3CC[C@@]21C", "note": "(stereo not given in full)", "values": [{"measurement": "GI50", "setting": "[2]", "result": "19.2 µM (inactive)"}, {"measurement": "GI50", "setting": "[3]", "result": "16.9 µM (inactive)"}, {"measurement": "GI50", "setting": "[4]", "result": "19.7 µM (inactive)"}, {"measurement": "GI50", "setting": "[5]", "result": "13.6 µM (inactive)"}, {"measurement": "GI50", "setting": "[9]", "result": "19.3 µM (inactive)"}, {"measurement": "GI50", "setting": "[7]", "result": "21.2 µM (inactive)"}]}, {"smiles": "COc1ccc(OC)c(CC(C)N)c1", "note": "(stereo not given)", "values": [{"measurement": "GI50", "setting": "[3]", "result": "> 100 µM (inactive)"}, {"measurement": "GI50", "setting": "[4]", "result": "> 100 µM (inactive)"}, {"measurement": "GI50", "setting": "[5]", "result": "> 100 µM (inactive)"}, {"measurement": "GI50", "setting": "[6]", "result": "> 100 µM (inactive)"}, {"measurement": "GI50", "setting": "[7]", "result": "> 100 µM (inactive)"}, {"measurement": "GI50", "setting": "[8]", "result": "> 100 µM (inactive)"}]}, {"smiles": "CCCc1ccc(NCc2cc(OC)c(OC)c(OC)c2)cc1", "values": [{"measurement": "GI50", "setting": "[3]", "result": "20.5 µM (inactive)"}, {"measurement": "GI50", "setting": "[4]", "result": "23.9 µM (inactive)"}, {"measurement": "GI50", "setting": "[5]", "result": "31.3 µM (inactive)"}, {"measurement": "GI50", "setting": "[6]", "result": "15.6 µM (inactive)"}, {"measurement": "GI50", "setting": "[9]", "result": "56.9 µM (inactive)"}, {"measurement": "GI50", "setting": "[7]", "result": "28.6 µM (inactive)"}, {"measurement": "GI50", "setting": "[8]", "result": "18.9 µM (inactive)"}]}]}
